Where “and” joins values, the source holds several entries; their conditions need not be identical. Equal values may be shown once.
System: 168753-222-R-J1-PDC complex spheroid viability
Experiment: Anticancer human tumor 168753-222-R-J1-PDC patient-derived bladder carcinoma cell line growth inhibition [CLK]
Settings: for viability, T/C: stronger effect = lower value
Method in brief: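 Patient-derived tumor cells grown as complex spheroids with HUVEC endothelial cells and mesenchymal stem cells, treated with drug combinations. Concentrations descend in half-log steps from near clinical Cmax, or from 10 microM if Cmax unknown.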

[1] = curve of first compound, second compound 0.0316 µM
[2] = curve of first compound, second compound 0.1 µM
[3] = curve of first compound, second compound 0.316 µM
[4] = curve of first compound, second compound 1 µM
[5] = curve of first compound, second compound 3.16 µM
[6] = curve of first compound, second compound 10 µM
[7] = second compound 0.0316 µM, first compound 0.0316 µM
[8] = second compound 0.0316 µM, first compound 0.1 µM
[9] = second compound 0.0316 µM, first compound 0.316 µM
[10] = second compound 0.0316 µM, first compound 1 µM
[11] = second compound 0.0316 µM, first compound 3.16 µM
[12] = second compound 0.0316 µM, first compound 10 µM
[13] = second compound 0.1 µM, first compound 0.0316 µM
[14] = second compound 0.1 µM, first compound 0.1 µM
[15] = second compound 0.1 µM, first compound 0.316 µM
[16] = second compound 0.1 µM, first compound 1 µM
[17] = second compound 0.1 µM, first compound 3.16 µM
[18] = second compound 0.1 µM, first compound 10 µM
[19] = second compound 0.316 µM, first compound 0.0316 µM
[20] = second compound 0.316 µM, first compound 0.1 µM
[21] = second compound 0.316 µM, first compound 0.316 µM
[22] = second compound 0.316 µM, first compound 1 µM
[23] = second compound 0.316 µM, first compound 3.16 µM
[24] = second compound 0.316 µM, first compound 10 µM
[25] = second compound 1 µM, first compound 0.0316 µM
[26] = second compound 1 µM, first compound 0.1 µM
[27] = second compound 1 µM, first compound 0.316 µM
[28] = second compound 1 µM, first compound 1 µM
[29] = second compound 1 µM, first compound 3.16 µM
[30] = second compound 1 µM, first compound 10 µM
[31] = second compound 3.16 µM, first compound 0.0316 µM
[32] = second compound 3.16 µM, first compound 0.1 µM
[33] = second compound 3.16 µM, first compound 0.316 µM
[34] = second compound 3.16 µM, first compound 1 µM
[35] = second compound 3.16 µM, first compound 3.16 µM
[36] = second compound 3.16 µM, first compound 10 µM
[37] = second compound 10 µM, first compound 0.0316 µM
[38] = second compound 10 µM, first compound 0.1 µM
[39] = second compound 10 µM, first compound 0.316 µM
[40] = second compound 10 µM, first compound 1 µM
[41] = second compound 10 µM, first compound 3.16 µM
[42] = second compound 10 µM, first compound 10 µM
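Also: viability measured after seven days of drug exposure.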
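For viability, T/C in this document: luminescence signal used as surrogate for viable cell amount; 100% = DMSO vehicle control wells.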

For `COc1c(OCCCN2CCOCC2)ccc2c3n(c(=NC(=O)c4cnc(N)nc4)nc12)CCN3`, the viability, T/C (compound 0.00316 µM) was 59.7% and 74.2%, the viability, T/C (compound 0.01 µM) was 44.1% and 48.3% and the viability, T/C (compound 0.0316 µM) was 10.2% and 17%. For the same compound, the viability, T/C (compound 0.1 µM) was 13.6% and 15.3%, the viability, T/C (compound 0.316 µM) was 7.59% and 8.3% and the viability, T/C (compound 1 µM) was 2.26% and 3.63%. The IC50 (curve of compound) was 6.47 nM and 8.95 nM.
In the case of `CC1COCCN1c1cc(C2(S(C)(=N)=O)CC2)nc(-c2ccnc3[nH]ccc23)n1` (stereo not drawn), the viability, T/C (compound 0.0316 µM) is reported as 93.5% and 106%, the viability, T/C (compound 0.1 µM) is reported as 67% and 101% and the viability, T/C (compound 0.316 µM) is reported as 84.1% and 104%. For the same compound, the viability, T/C (compound 1 µM) was 75.9% and 102%, the viability, T/C (compound 3.16 µM) was 49.7% and 87.8% and the viability, T/C (compound 10 µM) was 26.7% and 56.4%. The IC50 (curve of compound) was 3110 nM and > 10000 nM.
For `CC(Nc1ccc2c(c1)OCCn1cc(N3C(=O)OCC3C(F)F)nc1-2)C(N)=O` (stereo not drawn) + CNC(=O)c1ccc(Nc2nc(OC3CCCC3)c3c(-c4ccc5nc(C)oc5c4)c[nH]c3n2)c(OC)c1, the IC50 [1] was 161 nM, the IC50 [2] was 133 nM and the IC50 [3] was 45.8 nM. For the same compound, the IC50 [4] was < 31.6 nM, the IC50 [5] was < 31.6 nM and the IC50 [6] was < 31.6 nM. It also gave a viability, T/C [7] of 93.1%, a viability, T/C [8] of 71% and a viability, T/C [9] of 20.2%. For the same compound, the viability, T/C [10] was 15.5%, the viability, T/C [11] was 13.3% and the viability, T/C [12] was 13%. The viability, T/C [13] was 83.7%, the viability, T/C [14] was 60.5% and the viability, T/C [15] was 18.3%. It also gave a viability, T/C [16] of 14.3%, a viability, T/C [17] of 13.5% and a viability, T/C [18] of 11.6%. The viability, T/C [19] was 62.5%, the viability, T/C [20] was 23.5% and the viability, T/C [21] was 15%. The viability, T/C [22] was 9.68%, the viability, T/C [23] was 9.36% and the viability, T/C [24] was 9.19%. It also gave a viability, T/C [25] of 24.3%, a viability, T/C [26] of 13.5% and a viability, T/C [27] of 6.89%. For the same compound, the viability, T/C [28] was 2.64%, the viability, T/C [29] was 1.07% and the viability, T/C [30] was 2.28%. It also gave a viability, T/C [31] of 14.9%, a viability, T/C [32] of 10.1% and a viability, T/C [33] of 3.74%. It also gave a viability, T/C [34] of 0.82%, a viability, T/C [35] of 1.82% and a viability, T/C [36] of 3.99%. It also gave a viability, T/C [37] of 12.8%, a viability, T/C [38] of 9.3% and a viability, T/C [39] of 3.4%. For the same compound, the viability, T/C [40] was 0.76%, the viability, T/C [41] was 0.78% and the viability, T/C [42] was 1.14%.
With `C#Cc1c(F)ccc2cc(O)cc(-c3ncc4c(N5CC6CCC(C5)N6)nc(OCC56CCCN5CC(F)C6)nc4c3F)c12` (stereo not drawn) + CN1CCN(c2cc(C(=O)Nc3cc4cc(-c5cnn(C)c5)ccc4cn3)ccn2)CC1 the IC50 [1] was > 10000 nM, the IC50 [2] was 1850 nM and the IC50 [3] was < 31.6 nM. For the same compound, the IC50 [4] was < 31.6 nM, the IC50 [5] was < 31.6 nM and the IC50 [6] was < 31.6 nM. It also gave a viability, T/C [7] of 105%, a viability, T/C [8] of 107% and a viability, T/C [9] of 101%. For the same compound, the viability, T/C [10] was 103%, the viability, T/C [11] was 96.4% and the viability, T/C [12] was 70.3%. It also gave a viability, T/C [13] of 77.7%, a viability, T/C [14] of 64.7% and a viability, T/C [15] of 63.9%. The viability, T/C [16] was 64.2%, the viability, T/C [17] was 37.4% and the viability, T/C [18] was 38%. It also gave a viability, T/C [19] of 14.7%, a viability, T/C [20] of 14.6% and a viability, T/C [21] of 11.8%. For the same compound, the viability, T/C [22] was 12%, the viability, T/C [23] was 12.1% and the viability, T/C [24] was 7.39%. It also gave a viability, T/C [25] of 0.54%, a viability, T/C [26] of 0.65% and a viability, T/C [27] of 1.92%. The viability, T/C [28] was 0.88%, the viability, T/C [29] was 0.75% and the viability, T/C [30] was 0.34%. For the same compound, the viability, T/C [31] was 2.41%, the viability, T/C [32] was 0.59% and the viability, T/C [33] was 1.48%. The viability, T/C [34] was 0.13%, the viability, T/C [35] was 0.39% and the viability, T/C [36] was 0.22%. It also gave a viability, T/C [37] of 0.18%, a viability, T/C [38] of 0.32% and a viability, T/C [39] of 0.39%. It also gave a viability, T/C [40] of 0.2%, a viability, T/C [41] of 0.57% and a viability, T/C [42] of 3.73%.

From PubChem BioAssay AID2060626 (Molecular Pharmacology Branch, DTP, NCI, 2025)
